In patent US20100178299A1, “METHODS AND COMPOSITIONS FOR IMPROVING IMMUNE RESPONSES” (Northeastern University, priority 2007, published 2010):
“Also recorded” adds a separate entry of the source.

How the values were obtained:
[1] = tested on: MCA 205 fibrosarcoma lung metastases; experiment: Adoptive immunotherapy of MCA 205 fibrosarcoma lung metastases; assay type: in vivo, mice; conditions: KW6002 20 mg/kg daily i.p. with adoptive transfer of 12.5×10^6 anti-tumor T cells; day 21
Method: Here, we observed the effect of adoptively transferred anti-tumor T cells on the weakly immunogenic MCA 205 fibrosarcoma lung metastases if treatment included A2AR antagonist KW6002. It is shown that treatment with this long-lived A2AR antagonist may strongly enhance the efficacy of adoptive immunotherapy (FIG. 7).
CTLs were prepared from tumor draining lymph nodes isolated from lymph nodes 12 days after s.c. inoculation with 1.5×105 MCA205 fibrosarcoma. After 2 days anti-CD3 activation and additional 3 days IL-2 expansion, these T cells were injected into mice with 10 days established pulmonary metastases (3×10^5 MCA205 cells). After the adoptive transfer, the mice received daily i.p. injection of 20 mg/kg of KW6002. The pulmonary metastases were examined by day 21 after tumor inoculation. (Please note that tumors appear as white nodules upon the ink injected lungs.)

B16 melanoma = B16 melanoma growth and survival in mice given GM-CSF-transfected B16 tumor vaccine; assay type: in vivo, C57BL/6 mice; conditions: for survival of mice: log-rank
Description: Tumor melanoma cells are transfected with GM-CSF then irradiated or treated with anti-proliferative drug, mitomycin C, in order to prevent the proliferation of these tumor vaccine cells in a patient to be injected with this vaccine. […] Hodi F S, Dranoff G. Combinatorial cancer immunotherapy. Adv Immunol. 2006; 90:341-68
B16 melanoma (1×10^6 cells, s.c.) were inoculated to syngeneic C57BL/6 mice. All the mice received tumor vaccination, GM-CSF transfectant of B16 cells (1×10^6 cells, s.c.), for 3 times in every week starting from day 2. On the same day, treatment with KW6002 (2 mg/kg, daily s.c. injection) and/or 60% oxygen was started until the end of the experiment. B16 tumor growth was retarded by treatment with 60% oxygen and combined treatment with KW6002 (left). Perpendicular tumor diameters were measured and tumor volumes were calculated according to the formula a2×b×0.52, where a is the smaller and b is the larger tumor diameter. […] The mice were euthanized when tumor reached 2.0 cm in diameter or became ulcerated. […] The difference was statistically significant with control vs 60% O2 (p=0.033) and control vs 60% O2+KW (p=0.001). The statistics was calculated by log-rank test.

RMA T lymphoma = RMA T lymphoma growth, rejection and survival in mice treated with caffeine and/or 60% oxygen; assay type: in vivo, C57BL/6 mice
A2AR = molecular target: T1, A2AR (Homo sapiens, UniProt P29274); experiment: Control assay of ex vivo serum from caffeine-treated mice on adenosine→A2AR-induced cAMP accumulation in cells; assay type: cell-based; conditions: ex vivo serum from mice given caffeine 0.1% w/v in drinking water
T1 construct: host or cells: cells, not specified
T1 sequence (P29274 whole entry): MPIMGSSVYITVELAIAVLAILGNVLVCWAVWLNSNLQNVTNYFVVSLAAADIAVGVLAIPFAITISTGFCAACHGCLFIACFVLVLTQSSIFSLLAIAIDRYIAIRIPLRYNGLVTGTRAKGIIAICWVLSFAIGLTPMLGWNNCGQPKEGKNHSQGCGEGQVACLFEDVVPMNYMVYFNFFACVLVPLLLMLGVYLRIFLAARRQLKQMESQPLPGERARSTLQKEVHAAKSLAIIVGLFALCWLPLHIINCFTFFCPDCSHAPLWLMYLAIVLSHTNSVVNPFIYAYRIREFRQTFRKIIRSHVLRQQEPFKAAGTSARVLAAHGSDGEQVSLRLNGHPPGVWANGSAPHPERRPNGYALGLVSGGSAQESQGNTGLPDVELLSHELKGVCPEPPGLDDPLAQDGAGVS

TNP-specific IgM = experiment: TNP-KLH/CFA immunization with IFA booster, indirect ELISA of TNP-specific IgM (Example 2); assay type: in vivo, C57B1/6 mice
[2] = caffeine alone in drinking water (0.1% w/v), FIG. 2

Compound: CCn1c(=O)c2c(nc(/C=C/c3ccc(OC)c(OC)c3)n2C)n(CC)c1=O [KW6002, (E)-8-(3,4-dimethoxystyryl)-1,3-diethyl-7-methylxanthine]
- lung tumor nodules (pulmonary metastases) [1]: most of the tumor nodules were eliminated
- B16 tumor growth (B16 melanoma; KW6002 2 mg/kg daily s.c. combined with 60% oxygen, n=8, 2 mg/kg): can significantly retard tumor growth; also recorded: retarded
- survival of mice (B16 melanoma; KW6002 2 mg/kg daily s.c. combined with 60% oxygen, p=0.001 vs control): prolonged survival of mice

Compound: Cn1c(=O)c2c(ncn2C)n(C)c1=O [caffeine, 1,3,7-trimethylxanthine]
- RMA tumor growth (RMA T lymphoma; [2]): delayed tumor growth in mice
- survival (RMA T lymphoma; [2]): no significant improvement of survival
- rejection of RMA T lymphoma (RMA T lymphoma; combined treatment with caffeine and high (60%) oxygen atmosphere): significantly improved spontaneous rejection of RMA T lymphoma; also recorded: dramatically improving tumor rejection and survival; also recorded: significantly improved T cell-mediated rejection of RMA T lymphoma
- survival of mice (RMA T lymphoma; low dose RMA 2×10^5 cells s.c., combined caffeine and 60% oxygen, about 30% of control mice survived): significantly improved survival of mice
- in vivo levels of caffeine in serum versus adenosine→A2AR-induced cAMP accumulation (A2AR): sufficiently high to prevent (antagonize) adenosine→A2AR-induced cAMP accumulation in cells
- effectiveness of immunization (TNP-specific IgM) (TNP-specific IgM; caffeine in drinking water added to 60% oxygen versus 60% oxygen alone, FIG. 4B): further improved effectiveness of immunization

Compound: oxygen
- tumor rejection (RMA T lymphoma; high dose RMA 3×10^5 cells s.c., 60% oxygen alone, n=8, most of the mice): did not reject the tumor; also recorded: couldn't reject the tumor
- TNP-specific IgM production (TNP-specific IgM; 60% oxygen after vaccination versus normal oxygen, FIG. 4A): produced more IgM than control immunized mice
- B16 tumor growth (B16 melanoma; 60% oxygen alone, with tumor vaccine, n=8): retarded
- survival of mice (B16 melanoma; 60% oxygen alone, with tumor vaccine, p=0.033 vs control): prolonged survival of mice
